The subject of one experiment is VICs. The experiment can be described thus: Calcification assay of VICs in osteogenic medium (Alizarin Red S, alkaline phosphatase). The experiment is classed as cell-based, human. The note with it: VICs in osteoblastic medium; for calcification / production of calcific nodules: Poly(I:C) 20 μg/mL or inhibitor 26 μM, Alizarin Red S. The protocol: For functional evaluation of osteoblastic activity, VICs were subjected to a calcification assay. Cells were cultured in osteogenic medium including 10 mmol/L beta-glycerophosphate, 10 nmol/L vitamin D3, and 10 nmol/L dexamethasone as described previously^4. The medium was changed every three days. Subsequently, supernatant was analyzed for alkaline phosphatase activity using the commercially available alkaline phosphatase assay kit (Abcam, Cambridge, UK). After careful rinsing with PBS, cells were fixed with 4% paraformaldehyde, washed with distilled water and Alizarin Red S staining solution (Alfa Aesar, Haverhill, MA) was added upon the fixed cells for 20 minutes at room temperature (RT). Imaging of the staining was performed using a Zeiss Axioplan 2 microscope (Zeiss, Oberkochen, Germany). Images were processed using Adobe Photoshop CS5.1 for Mac (Adobe Systems Inc., San Jose, CA, USA) and analyzed with ImageJ software (National Institutes of Health, Bethesda, […]).

Another experiment deals with zebrafish (Danio rerio). Briefly: Zebrafish VitD3-induced calcification model. Type of experiment: in vivo. Particulars: larvae from 5 dpf, 5 days; for VitD3-induced calcification on co-incubation: VitD3 200 ng/mL with TLR3-inhibitor 5 μg/mL, opercle and all bone structures. The protocol: Fish were maintained and raised under standard husbandry conditions. VitD3 treatments were performed as previously described^26 with some minor modifications. Briefly: 15 animals (5 dpf) were pooled per 6-well pate and incubated for 5 days at 28° C. in 4 ml E3 medium containing 0.1% DMSO and different compounds as indicated. Larvae were fixed in 4% PFA overnight. Final concentration of compounds was 5 μg/mL for TLR3-inhibitor (Merck, Darmstadt, Germany) and 200 ng/mL VitD3 (Sigma, St. Louis, MO). Dilutions were generated from stock solutions with 10 mg/mL TLR3-INH and 200 mg/mL VitD3 in DMSO. Solutions containing VitD3 were changed every day. All experiments were done in duplicates. Alizarin Red stains were performed as described previously^27 with some minor modifications. After staining larvae were transferred to 100% glycerol and imaged. Area measurements were carried out as described^28.
Whole area: For each larva three independent ventral view images were taken with a Leica MZ16FA using standardized stereomicroscope settings. After each image the larvae were embedded anew. Data quantification was done with ImageJ. Standard white balance was used for background subtraction. Image were converted to greyscale (8 bit) and threshold was set to 225. The stained area excluding the otoliths was measured.
Opercula area: Larvae were imaged laterally from both sides using a standard microscope setting. Area measurements were performed as described above.

Experiment [1] deals with T1, recombinant human TLR3 ectodomain (huTLR3-ECD), residues 27-700, C-terminal 6x His tag (human, UniProt O15455 27-700).
T1 construct: also called purified TLR3 ectodomain; hTLR3-ECD
The experiment can be described thus: size-exclusion chromatography of the mixed proteins, fractions immunoblotted. The protocol:
To obtain core protein of bovine biglycan, purchased biglycan (Sigma, St. Louis, MO) was incubated with Chondroitinase ABC (Merck, Darmstadt, Germany) at 37° C. for 2 h. Digestion of chondroitin sulfate was verified by electrophoresis and subsequent Coomassie-staining. To 185 μl of digested BGN (0.5 mg/ml) 15 μl of TLR3 (1 mg/ml) was added and incubated on ice for 30 min. The sample was subjected to size exclusion chromatography (Supedex200 increased 10/300 GL column) using 20 mM HEPES pH7.5 100 mM NaCl as running buffer. Fractions were collected and analyzed by Immunoblotting as described above.
(Size exclusion chromatography separates by hydrodynamic size, large species first.)

For another experiment, the target named is TLR3 (Homo sapiens, UniProt O15455). The experiment can be described thus: HEK293 hTLR3 reporter cell assay (TLR3/ISRE LUCPorter, luminometer). Type of experiment: cell-based. The note with it: putative ligands at increasing concentrations, 24 h (biglycan 5, 10, 20 μg/ml). The protocol:
All cells were cultivated under standard conditions (37° C., supplied with 5% CO2). Passaging of the cells was performed at 70-90% confluency, and cells were only used until passage 7 as described previously^6. Polyinosinic: polycytidylic acid (Poly(I:C); Invivogen, San Diego, CA) was used to stimulate cells at a concentration of either 20 μg/mL or 5 μg/ml, depending on the assay. For blockade of TLR3, the commercially available dsRNA/TLR3 inhibitor ((R)-2-(3-Chloro-6-fluorobenzo [b] thiophene-2-carboxamido)-3-phenyl-propanoic acid) was used (Merck, Darmstadt, Germany) at a concentration of 1 μg/ml as described previously^1,7. LY294002 (Invivogen, San Diego, CA), a PI3K inhibitor, was used at a concentration of 10 μM. For blockade of IFNAR1, a specific blocking antibody (Invitrogen, Carlsbad, CA) was used at a concentration of 4 μg/ml. A stable HEK (human embryonic kidney) reporter cell line (TLR3/ISRE LUCPorter; Imgenex, USA) was purchased for luminometer assay experiments. Cells were cultivated according to the manufacturer's protocol in DMEM with 4.5 g/L glucose (Lonza, Switzerland), 10% FCS (Sigma, St. Louis, MO), penicillin/streptomycin, and 4 mM L-glutamine and […] puromycin (Gibco, USA) as selection agent. Reporter experiments were performed as described previously^8. […]

“Also recorded” adds a separate entry of the source.

`O=C(N[C@H](Cc1ccccc1)C(=O)O)c1sc2cc(F)ccc2c1Cl` [TLR3 inhibitor, (R)-2-(3-Chloro-6-fluorobenzo [b]thiophene-2-carboxamido)-3-phenyl-propanoic acid]: the “calcification / production of calcific nodules” value is “reduced calcification” with VICs and “reduced” with VICs (listed as dsRNA/TLR3 complex inhibitor). In addition, the “alkaline phosphatase (ALP) activity” value in the experiment on VICs (supernatant) was “reduced”. In addition, the “VitD3-induced calcification on co-incubation” value in the experiment on zebrafish (Danio rerio) was “reduced calcification; also recorded: abolished”; in the experiment on zebrafish (Danio rerio) (listed as Tlr3 inhibitor) it was “severely impaired calcification of the skeleton”.
Regarding `C=C1CC[C@H](O)C/C1=C/C=C1\CCC[C@]2(C)[C@@H]([C@H](C)CCCC(C)C)CC[C@@H]12` [VitD3, vitamin D3], the “calcification of landmark bones” value in the experiment on zebrafish (Danio rerio) (VitD3 200 ng/mL alone) is “early and strong calcification of landmark bones”.

B1: core protein of bovine biglycan (purchased biglycan, Sigma, digested with Chondroitinase ABC) (ligand, UniProt P21809 38-369, looked up)
chain: DEEASGAETTSGIPDLDSLPPTYSAMCPFGCHCHLRVVQCSDLGLKAVPKEISPDTTLLDLQNNDISELRKDDFKGLQHLYALVLVNNKISKIHEKAFSPLRKLQKLYISKNHLVEIPPNLPSSLVELRIHDNRIRKVPKGVFSGLRNMNCIEMGGNPLENSGFEPGAFDGLKLNYLRISEAKLTGIPKDLPETLNELHLDHNKIQAIELEDLLRYSKLYRLGLGHNQIRMIENGSLSFLPTLRELHLDNNKLSRVPAGLPDLKLLQVVYLHTNNITKVGVNDFCPVGFGVKRAYYNGISLFNNPVPYWEVQPATFRCVTDRLAIQFGNYKK
modifications: chondroitin sulfate removed by Chondroitinase ABC digestion
notes: also called digested BGN; BGN
For B1, the binding result in experiment [1] is “binds”.

B2: rhBGN: BGN lacking chondroitin sulfate chains (protein)
chain (part 1 of 2): HHHHHH
chain (part 2 of 2): DEEASGADTSGVLDPDSVTPTYSAMCPFGCHCHLRVVQCSDLGLKSVPKEISPDTTLLDLQNNDISELRKDDFKGLQHLYALVLVNNKISKIHEKAFSPLRKLQKLYISKNHLVEIPPNLPSSLVELRIHDNRIRKVPKGVFSGLRNMNCIEMGGNPLENSGFEPGAFDGLKLNYLRISEAKLTGIPKDLPETLNELHLDHNKIQAIELEDLLRYSKLYRLGLGHNQIRMIENGSLSFLPTLRELHLDNNKLARVPSGLPDLKLLQVVYLHSNNITKVGVNDFCPMGFGVKRAYYNGISLFNNPVPYWEVQPATFRCVTDRLAIQFGNYKK
modifications: left off: small tags and cut ends
notes: BGN lacking chondroitin sulfate chains
Take B2: the “activation of TLR3 reporter cells” value with TLR3 was “did not activate TLR3”.
